The subject of assay [1] is RKO cells. Nature of the assay: Cell death of RKO cells with Mitomycin C compositions, MTS assay (Example 7). It is filed as cell-based, human. To be noted: MMC 40 μM, including cells heated to 42° C. The procedure:
Three (3) 48 well plates containing 10,000-20,000 RKO cells/well (human colon carcinoma) were prepared for a series of experiments measuring cell death as a function of exposure to various compositions, including compositions according to some embodiments of the present invention.
RKO colorectal cancer cell lines were purchased from American Type Culture Collections (ATCC) and cultured in McCoys's media supplemented with 2.5 μg/ml of amphotericin, 1% L-glutamine, 1% penicillin/streptomycin, and 10% fetal bovine serum. Cells were seeded in wells of the appropriate trays at a density of 10,000-20,000 cells per well.
(§1) MWNTs were grown by chemical vapor deposition (CVD) using xylene as the carbon precursor and ferrocene as a catalyst at concentrations of 60 mg or 400 mg. Hydrogen and argon gases were used to flow the xylene through a preheater at 170° C. and a furnace oven at 700° C. An injection rate of 5 ml/hour for a one hour run yielded about 200 mg of carbon nanotubes.
(§2) 50 mg of the MWNTs were cut and cleaned by sonication in a mixture of 90 ml of concentrated sulfuric acid and 30 ml of concentrated nitric acid for 24 hours. The length of the nanotubes was about 2 μm as determined by transmission electron microscopy (TEM). MWNT suspensions were prepared by adding 1 mg of MWNT per 1 ml of aqueous solution comprising 0.1% by weight Pluronic 127® surfactant. […]
A general note: Tetrazolium dyes change colour on reduction, which living cells bring about.

In assay [2] the test system is RKO cells. Description: Cell death of RKO cells after exposure to compositions, calorimetric assay (Example 4). The class given is cell-based, human. The following applies: oxaliplatin 300 μM, heated to 42° C. for two hours. On the procedure:
Three (3) 48 well plates containing 20,000 RKO cells/well (human colon carcinoma) were prepared for a series of experiments measuring cell death as a function of exposure to various compositions, including compositions according to some embodiments of the present invention.
as §1
50 mg of the MWNTs were cut and cleaned by sonication in a mixture of 90 ml of concentrated sulfuric acid and 30 ml of concentrated nitric acid for 24 hours. The length of the nanotubes was about 2 μm as determined by transmission electron microscopy (TEM). MWNT suspensions were prepared by adding 1 mg of MWNT per 1 ml of aqueous solution having 0.1% by weight Pluronic 127® surfactant. The suspensions were sonicated to enhance MWNT dispersion. MWNT suspensions were diluted with water to a concentration of 100 μg MWNT/ml.
A solution comprising oxaliplatin at a concentration of 300 μM was obtained (Ox). […]
Cell death resulting from the addition of the various compositions at the three temperatures was monitored by calorimetric assay. […]

Assay [3] concerns HeLa cervical cancer cells. Description: In vivo evaluation of localized hyperthermia, intraperitoneal cancer nodules in athymic mice (Example 11). The following applies: Group 3 irradiated 10 seconds (42° C.), Group 2 heated 42° C. two hours, two weeks after treatment.
Experimental: 15 athymic mice are divided equally into three treatment groups as provided in Table 13, with Group 1 receiving a treatment composition of 100 μg/ml of MWNTs, Group 2 receiving a treatment composition comprising 300 μM oxaliplatin, and Group 3 receiving a treatment composition comprising 300 μM oxaliplatin and 100 μg MWNT per ml.
Each animal of Groups 1-3 receives intraperitoneal injections of 1E6 HeLa cervical cancer cells which express folic acid receptors. […] Two weeks after the intraperitoneal injections of the cancerous cells, the intraperitoneal cavity of each animal in Groups 1-3 is exposed, and the cancer nodules photographed allowing size and number of the nodules to be recorded.
After examination and quantification of cancer nodules, two 5 ml solutions of FA functionalized MWNTs (100 μg/ml) are provided to the intraperitoneal cavity of each animal in Groups 1 and 3. […]
The animals of Groups 1-3 are allowed to recover for two weeks. […] The size and number of cancerous nodules at the time of sacrifice is compared to the initially recorded observations of size and number of cancerous nodules for each animal. Moreover, for each animal in the study, a total of about 1 to 10 mg of tumor nodule mass is retained to determine platinum content as determined by elemental analysis.
For the next assay, the system named is HCT 116 cells. Description: Cell death of HCT 116 cells, single 8 second lasing (Example 8). The class given is cell-based, human. To be noted: oxaliplatin 300 μM, including cells heated to 42° C. The procedure:
Two (2) 48 well plates containing 10,000-20,000 HCT 116 cells/well (human colon carcinoma) were prepared for a series of experiments measuring cell death as a function of exposure to various compositions, including compositions according to some embodiments of the present invention.
HCT 116 colorectal cancer cell lines were purchased from American Type Culture Collections (ATCC) and cultured in McCoys's media supplemented with 2.5 μg/ml of amphotericin, 1% L-glutamine, 1% penicillin/streptomycin, and 10% fetal bovine serum. Cells were seeded in wells of the appropriate trays at a density of 10,000-20,000 cells per well.
as §1, §2

Assay [4] relates to RKO cells. Nature of the assay: Cell death / viability of RKO cells, MTS assay (Example 5). The class given is cell-based, human. To be noted: oxaliplatin 300 μM, including cells heated to 42° C., MTS 48 hours after treatment. The procedure: Three (3) 48 well plates containing 10,000-20,000 RKO cells/well (human colon carcinoma) and three (3) 48 well plates containing 10,000-20,000 HCT 116 cell/well (human colon carcinoma) were prepared for a series of experiments measuring cell death as a function of exposure to various compositions, including compositions according to some embodiments of the present invention.
RKO and HCT 116 colorectal cancer cell lines were purchased from American Type Culture Collections (ATCC) and cultured in McCoys's media supplemented with 2.5 μg/ml of amphotericin, 1% L-glutamine, 1% penicillin/streptomycin, and 10% fetal bovine serum. Cells were seeded in wells of the appropriate trays at a density of 10,000-20,000 cells per well. […]
50 mg of the MWNTs were cut and cleaned by sonication in a mixture of 90 ml of concentrated sulfuric acid and 30 ml of concentrated nitric acid for 24 hours. The length of the nanotubes was about 2 μm as determined by transmission electron microscopy (TEM). […]
Following incubation, the media in the wells of each of the plates was replaced with media containing MTS assay reagents from Promega's CellTiter 96® AQueous assay kit. Cell viability was quantified over a three hour period according to the manufacturers instructions.

Molecules are shown by their SMILES.

With `CO[C@@]12[C@H](COC(N)=O)C3=C(C(=O)C(C)=C(N)C3=O)N1C[C@@H]1N[C@@H]12` [MMC, Mitomycin C], in the assay with RKO cells [1], the cell death entry is listed as “significant death”.

For `O=C1[O][Pt]2([NH][C@@H]3CCCC[C@H]3[NH]2)[O]C1=O` [oxaliplatin], the cell death result in the assay on RKO cells [2] is listed as “significant”; in the assay with HCT 116 cells, “significant death”; in the assay on RKO cells [4], “significant death”. Moreover, the “reduction in the sizes and numbers of cancerous nodules (Groups 2 and 3 compared)” value in assay [3] was “substantially similar reduction”.
